From publication PMC5340040 (BMC Biochemistry, 2017)
No end group written: not given here.

Tests used:
[1] = biological target: T1, MgF-actin (Oryctolagus cuniculus, UniProt P68135); assay: Extent of F-actin bundling by low speed centrifugation; format: biochemical, rabbit
T1 construct: MgF-actin was polymerized from CaATP-G-actin by 30 min incubation with 2 mM MgCl2 at 22 °C; tissue Pel-Freez Biologicals (Rogers, AR) (acetone powder); host or cells: rabbit back and leg skeletal muscle
Procedure: CaATP-G-actin was stored in a buffer containing 5 mM TrisHCl, 0.2 mM CaCl2, 0.2 mM ATP, 0.5 mM β-mercaptoethanol, pH 8.0 (CaATP-G-buffer). MgF-actin was polymerized from CaATP-G-actin by 30 min incubation with 2 mM MgCl2 at 22 °C. MgF-actin was diluted for further treatments in MgF-buffer containing 5 mM 3-(N-morpholino) propanesulfonic acid (MOPS), 2 mM MgCl2, 0.2 mM ATP and 0.5 mM DTT, pH 7.4. The concentration of G- and F-actin was determined using the extinction coefficient E^1% 290 = 11.5 cm-^1. (The optical density of actin was measured in the presence of 0.5 M NaOH, which shifts the maximum of absorbance from 280 to 290 nm).
Extent of actin polymerization and bundling was measured by high speed centrifugation at 129,151 x g for 2 h and by low speed centrifugation at 20,800 x g for 8 min, respectively. The centrifugations were carried out at 4 °C. The supernatants were separated by 12% sodium dodecyl sulfate polyacrylamide electrophoresis (SDS−PAGE) and analyzed by densitometry using the TINA 2.07d software.
Bundling was carried out at low ionic strength. a and b bundling kinetics of 4 μM F-actin was followed by light scattering change as described in Methods. […] Upper panels quantitative evaluation of bundling, lower panels, representative SDS-PAGE of the supernatants
Effect of pH on bundling. […]

[2] = test system: TG-G-actin; assay: Cross-linking to TGase pretreated G-actin (TG-G-actin) vs G-actin; cross-linking site; format: binding, rabbit; settings: 4.5 μM Fl-histatin; for cross-linked product with TGase pretreated vs untreated G-actin: 4 μM G-actin or TG-G-actin, 0.3 mg/ml TGase, 30 min, 22 °C; for cross-linking site in the D-loop of G-actin: TG-G-actin (Gln41 blocked)
Procedure: Preparation of TG-G-actin: 108 μM CaATP-G-actin was incubated with 4 mg/ml TGase at 4 °C for 24 h. After cross-linking samples were run on SDS-PAGE and evaluated by densitometry. Upper panel quantitative evaluation of SDS-PAGE by densitometry. Lower panel representative SDS-PAGE visualized by Coomassie blue

[3] = test system: subtilisin / trypsin digested G-actin; assay: Cross-linking to subtilisin or trypsin fragments of G-actin; format: binding, rabbit; settings: 4 μM G-actin, 6 μM Fl-histatin, 0.3 mg/ml TGase, 30 min, 22 °C; for cross-linking to subtilisin fragments (Asp1-Met47 N-terminal, Gly48-Phe375 C-terminal): 1.5 μg/ml subtilisin; for cross-linking to Tyr69-Arg372 C-terminal tryptic fragment: 20 μg/ml trypsin
Procedure: Trypsin and subtilisin digestions were stopped by 40 μg/ml STI and 1 mM PMSF, respectively. Samples were run on SDS-PAGE. Left, lanes visualized by Coomassie blue; right, lanes visualized by fluorescence, marked by (*). Legend: (a) actin; (b) trypsin digested actin; (c) trypsin digested actin cross-linked with Fl-histatin-3 or Fl-histatin-5; (d) subtilisin digested actin; (e) subtilisin digested actin cross-linked with Fl-histatin-3 or Fl-histatin-5; nf), actin cross-linked with Fl-histatin-3 or Fl-histatin-5. a Fl-histatin-3-actin fragments cross-linked bands; b Fl-histatin-5-actin fragments cross-linked bands. Lane M, molecular weight marker

[4] = test system: CaATP-G-actin; settings: 22 °C
Procedure: The reaction was stopped by addition of 1 mM cysteamine. Samples were subjected to 12% SDS-PAGE, visualized by Coomassie blue or fluorescence and evaluated by densitometry.
Samples were treated with TGase at 22 °C for 30 and run on SDS-PAGE and evaluated by densitometry as described in Methods.
Cross-linking with 0.3 mg/ml TGase for 30 min at 22 °C. Upper panel, quantitative evaluation of SDS-PAGE by densitometry.

[5] = test system: G-actin; assay: Inhibition of TGase cross-linking to G-actin by NaCl, DNase1 and cofilin; format: binding, rabbit; settings: 6 μM Fl-histatin, 4 μM G-actin; for effect of NaCl on cross-linking to G-actin: 0.3 mg/ml TGase, 1 min
Procedure: Here we studied the effect of these agents on the cross-link formation between G-actin and histatins. In these experiments NaCl, histatins, TGase were added simultaneously to G-actin and incubated for 1 min only to avoid significant actin polymerization.
Samples were treated with TGase for 1 min. Upper panel, evaluation of SDS-PAGE. Lower panel, representative SDS-PAGE visualized by Coomassie blue. b Inhibition of cross-linking by DNase1 and cofilin. Samples were treated with TGase for 5 min

[6] = biological target: T1, MgF-actin; assay: Transglutaminase cross-linking to F-actin; format: binding, rabbit; settings: 22 °C; for effect of phalloidin on extent of F-actin cross-linking: 4 μM F-actin, 8 μM Fl-peptide, 8 μM phalloidin, 0.3 mg/ml TGase, 30 min
Text: Lower panels are representative SDS-PAGE-s. […] Lower panel, SDS-PAGE visualized by fluorescence
Upper panel, quantitative evaluation of SDS-PAGE by densitometry. Lower panel Coomassie blue stained representative SDS-PAGE

[7] = test system: actin; settings: cited from earlier work
Text: Actin is a negatively charged structural protein and the most abundant protein in the eukaryotic cells. Actin, released from dead cells, is also present in the saliva. Actin has important roles in cytoskeleton formation, cell division, motility, adhesion, signaling and more. Actin exists in either monomer globular (G) or polymer filament (F) form, which are interconvertible into each other.

[8] = test system: CaATP-G-actin; settings: ref [6], cited from earlier work
Text: Transglutaminase (TGase) catalyzes the formation of isopeptide bonds, which cross-links proximal glutamine and lysine residues in proteins. The TGase reaction produces both intramolecular cross-links in proteins and intermolecular cross-links between proteins and peptides.

[9] = test system: G-actin; settings: ref [6]; cited from earlier work
[10] = test system: TG-G-actin; settings: ref [6]; cited from earlier work
Text: TGase catalyzes covalent cross-linking of glutamine and lysine residues in proteins. Since in the histatin-G-actin cross-linking reaction only actin contains glutamine residues, it follows that actin should be the glutamine donor in this case. […] Gln41 seems to be the preferred candidate for this role sinc ...

[11] = test system: CaATP-G-actin (skeletal muscle); assay: Actin polymerization, pyrene-actin fluorescence kinetics; format: biochemical, rabbit; settings: 4 μM CaATP-G-actin; 8 μM histatin-3, 20 μM histatin-5, 7 μM LL-37; pH 6.5, 7.4 and 8.2; 22 °C
Procedure: Labeling of Mg-F-actin at Cys-374 with pyrene maleimide was carried out according to Kouyama and Mihashi with some modifications. CaATP-G-actin was filtered through a PD-10 column (GE Healthcare) equilibrated with β-mercaptoethanol-free CaATP-G-buffer. After filtration, G-actin (1 mg/ml) was polymerized by 2 mM MgCl2 and 100 mM KCl at 22 °C for 30 min, and reacted with pyrene maleimide (16 μg/ml) on ice, for 1 h. The reaction was terminated with 1 mM DTT. Labeled F-actin was centrifuged at 129,151 x g for 2 h; the pellet was resuspended in Ca-ATP-G-buffer and depolymerized by dialyzing in this buffer for 36 h at 4 °C with twice changing the buffer. Finally, actin was centrifuged again at 129,151 x g for 2 h. […] The concentration of modified actin was determined by the procedure of Bradford using unmodified actin as a standard. The extent of labeling was determined by using pyrene extinction coefficient E344 nm = 22,000 cm^−1M^−1, was ~100%.
Actin polymerization was followed by fluorescence increase (at 365 nm excitation and 386 nm emission wavelengths) of pyrene-labeled G-actin [17], which was added to unlabeled G-actin in 10–15%. The kinetics of bundling of MgF−actin was monitored by increase in light scattering, with both excitation and emission wavelengths adjusted to 450 nm. All fluorescence and light scattering measurements were carried out at 22 °C. […]

[12] = test system: F-actin bundles; settings: ref [9]; cited from earlier work
Text: Both DNase1 and cofilin are actin binding proteins. DNase1 depolymerizes F-actin filament by binding to the protomer at the filaments ends and forming a tight complex with the protomer by attachment to its DNase1 binding loop (D-loop). […] Cofilin disassembles actin bundles by severing the filaments through its effect on the structure of actin protomers [[19] ...

[13] = test system: CaATP-G-actin (skeletal muscle); settings: ref [9]; cited from earlier work
Procedure: The pK of histidine is around pH 6.5 depending on the environment of the residue in the protein structure. This means that its charge changes with pH in the neutral pH region. Histidine is positively charged at slightly acidic pH and neutral above pH 7.0. Since actin polymerization is dependent on the number of positive charges of the polymerizing agent, the effect of pH 6.5, 7.4 and 8.2 on the polymerization of G-actin by histatins was measured (Fig. 1d).

[14] = 4 μM G- or F-actin, 8 μM histatin-3 or 6 μM LL-37, 0.4 mg/ml TGase

CC(C)C[C@H](NC(=O)[C@H](Cc1ccc(O)cc1)NC(=O)[C@H](CC(N)=O)NC(=O)[C@H](CO)NC(=O)[C@H](CCCNC(=N)N)NC(=O)[C@H](Cc1ccc(O)cc1)NC(=O)CNC(=O)[C@H](CCCNC(=N)N)NC(=O)[C@H](Cc1c[nH]cn1)NC(=O)[C@H](CO)NC(=O)[C@H](Cc1c[nH]cn1)NC(=O)[C@H](Cc1c[nH]cn1)NC(=O)[C@H](CCCCN)NC(=O)[C@H](CCC(=O)O)NC(=O)[C@H](Cc1c[nH]cn1)NC(=O)[C@H](Cc1ccccc1)NC(=O)[C@H](CCCCN)NC(=O)[C@H](CCCNC(=N)N)NC(=O)[C@H](CCCCN)NC(=O)[C@H](Cc1ccc(O)cc1)NC(=O)CNC(=O)[C@H](Cc1c[nH]cn1)NC(=O)[C@H](Cc1c[nH]cn1)NC(=O)[C@H](CCCNC(=N)N)NC(=O)[C@H](CCCCN)NC(=O)[C@H](C)NC(=O)[C@H](Cc1c[nH]cn1)NC(=O)[C@H](CO)NC(=O)[C@@H](N)CC(=O)O)C(=O)N[C@@H](Cc1ccc(O)cc1)C(=O)N[C@@H](CC(=O)O)C(=O)N[C@@H](CC(N)=O)C(=O)O [histatin-3]
EC50 [1]: 5 µM

Fl-histatin-5: FAM labeled histatin-5
cross-linked product with TGase pretreated vs untreated G-actin [2]: the same amount of cross-linked product formed | cross-linking site in the D-loop of G-actin [2]: does not cross-link to Gln41 of G-actin | cross-linking to subtilisin fragments (Asp1-Met47 N-terminal, Gly48-Phe375 C-terminal) [3]: cross-linked only to the C- but not to the N-terminal G-actin fragment | cross-linking to Tyr69-Arg372 C-terminal tryptic fragment [3]: can be also cross-linked | quantity of cross-linked product with G-actin, comparison ([4]; 4 μM CaATP-G-actin, 4–8 μM Fl-histatin, 0.3 mg/ml TGase): consistently greater than that of Fl-histatin-3 | extent of cross-linking to both G- and F-actin, comparison ([4]; 4 μM G- and F-actin, 6 μM Fl-histatin, 0.3 mg/ml TGase): larger than that of Fl-histatin-3 | effect of NaCl on cross-linking to G-actin [5]: NaCl inhibited the cross-linking | inhibitory effect of cofilin on cross-linking, comparison of peptides ([5]; cofilin, TGase 5 min): less Fl-histatin-5 than with Fl-histatin-3

Fl-histatin-3: tetramethylrhodamine labeled histatin-3 (DSHAKRHHGYKRKFHEKHHSHRGYRSNYLYDN; also: tetramethylrhodamine label, position not given here)
cross-linked product with TGase pretreated vs untreated G-actin [2]: slightly less actin Fl-histatin-3 cross-linked products formed with TGase pretreated than with untreated G-actin | cross-linking site in the D-loop of G-actin [2]: Gln-49 is the main glutamine donor in the D-loop of actin | effect of phalloidin on extent of F-actin cross-linking [6]: reduces greatly | cross-linking to subtilisin fragments (Asp1-Met47 N-terminal, Gly48-Phe375 C-terminal) [3]: both fragments can be cross-linked | cross-linking to Tyr69-Arg372 C-terminal tryptic fragment [3]: can be also cross-linked | effect of NaCl on cross-linking to G-actin [5]: NaCl inhibited the cross-linking

lysozyme: positively charged protein that interacts with actin
polymerization and bundling of actin, lysozyme ([7]; ref [8]): polymerize G-actin to F actin and bundle F-actin into actin bundles

Fl-LL-37: tetramethylrhodamine labeled LL-37
effect of phalloidin on extent of F-actin cross-linking [6]: reduces greatly

LLGDFFRKSKEKIGKEFKRIVQRIKDFLRNLVPRTES [LL-37]
cross-linking of LL-37 to actin by TGase [8, 25]: can be cross-linked to actin by TGase | binding site on actin [8]: binds preferentially to the D-loop of actin | effect of 200 mM NaCl on extent of cross-linking by LL-37 [9]: did not affect the extent of cross-linking | cross-linking site of LL-37 on actin [10]: preferentially cross-linked to Gln-49 | extent of cross-link formation with F-actin vs G-actin [6, 14]: significantly less than with G-actin | effect of pH on extent of F-actin bundling ([1]; 8 μM MgF-actin, 5 μM histatin-3, 12 μM histatin-5, 5 μM LL-37, pH 6.5, 7.3 and 8.2 (Fig. 2d), 3–16 μM histatins at pH 6.5 and 7.4 (Fig. S1)): contrary to the bundling by LL-37 | cross-linking to G- and F-actin by TGase [4, 14]: cross-linked to both G- and F-actin like LL-37 | polymerization and bundling of actin, LL-37 ([7]; ref [9]): polymerize G-actin to F actin and bundle F-actin into actin bundles | effect of pH on kinetics of actin polymerization [11]: much less pH-dependent than the polymerization by histatins | disassembly of polycation induced actin bundles by DNase1 and cofilin [12]: DNase1 and cofilin disassemble LL-37 and lysozyme -induced actin bundles | concentration at which G-actin is polymerized at neutral pH [13]: at about the same concentration as histatin-3
